This passage reports GI50 and TGI results from PubChem BioAssay (NCI).

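Interpolation was linear, between the two tested concentrations surrounding the appropriate level; five concentrations were tested over 48 hours in 96-well plates. Here, GI50 denotes the concentration required for 50% inhibition of growth. TGI marks complete inhibition of growth.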

What all share (test): NCI-60 cell line screen, 48 h
Test [1] deals with A549 NSCLC.
The test system of test [2] is COLO 205 colon.
The subject of test [3] is EKVX NSCLC.
Test [4] relates to HOP-62 NSCLC.
Test [5] relates to LOX IMVI melanoma.
Test [6] relates to M14 melanoma.
In test [7] the test system is MOLT-4 leukemia.
The subject of test [8] is NCI-H460 lung.
The test system of test [9] is SR leukemia.
Test [10] deals with TK-10 renal.

Take `COC(=O)CCC/C=C\C[C@H]1C=CC(=O)/C1=C/C[C@@H](O)CCc1cccc(C(F)(F)F)c1`: the GI50 in test [1] was 3.55 µM; in [2], 2.39 µM; in [3] it was 4.52 µM; in [4], 3.32 µM; in test [5], 0.955 µM; in test [6], 2.1 µM. Further, the GI50 was 2.29 µM in [7], 2.35 µM in test [8], 0.975 µM in [9] and 4.49 µM in [10]. Moreover, the TGI stood at 12.2 µM in test [1]; 5.85 µM in test [2]; 16.4 µM in test [3]; 9.15 µM in test [4]; 2.24 µM in [5]; 6.07 µM in [6]. The TGI is 6.46 µM in [7], 5.57 µM in test [8], 5.53 µM in test [9] and 12.4 µM in test [10].

On to `Nc1nc(-c2cccc([N+](=O)[O-])c2)c(Br)c(=O)[nH]1`, for which the TGI in test [1] is > 71.4 µM; in test [2] it was > 100 µM; in [3], > 100 µM; in test [4], > 100 µM; in test [5], > 100 µM; in [6], > 64.2 µM. For the same compound, the TGI in test [7], in test [8], in test [9] and in test [10] was > 100 µM each time.

On to `CC(=O)O[C@H]1C(N(C)C(=O)c2ccccc2)CC[C@]2(C)C3CC[C@@]4(C)C(CC(O)[C@@H]4C(C)N(C)C)[C@@H]3CCC12` (stereo not given in full), for which the TGI in [1], in [2], in [3], in [4], in [5] and in [6] was > 100 µM each time. Besides, the TGI in [7], in test [8], in test [9] and in test [10] was > 100 µM throughout.

As for `CCOC(=O)[C@@H](C)C[C@H](Cc1ccccc1)NC(=O)c1csc([C@@H](C[C@H](C(C)C)N(C)C(=O)[C@@H](NC(=O)[C@H]2C[C@H](O[Si](C)(C)C(C)(C)C)CCN2C)C(C)C)OC(C)=O)n1`, the GI50 was 0.379 µM in test [1]; 0.145 µM in [2]; 0.505 µM in test [3]; 0.411 µM in [4]; 0.304 µM in test [5]; 0.198 µM in test [6]. In addition, the GI50 in test [7] is 0.354 µM; in [8], 0.188 µM; in [9], 0.0387 µM; in test [10], 0.946 µM. The TGI is > 8.33 µM in test [1]; 0.459 µM in [2]; > 8.33 µM in test [3]; > 8.01 µM in test [4]; > 5.08 µM in test [5]; 1.03 µM in [6]. Also, the TGI in test [7] was > 8.33 µM; in test [8] it was 1.34 µM; in [9], 1.82 µM; in test [10] it was > 8.33 µM.

For the compound `NC(N)=N/N=C(/c1nc2ccc([N+](=O)[O-])cc2[nH]c1=O)C(O)c1ccco1` (stereo not given), the TGI in test [1], in test [2], in [3], in [4], in [5] and in [6] was > 100 µM each time. Further, the TGI in test [7], in [8], in test [9] and in test [10] was > 100 µM throughout.

As for `C=CCNC(=S)N1CC(C)C(=O)Nc2ccccc21` (stereo not given), the TGI in test [1], in test [2], in test [3], in test [4], in [5] and in test [6] was > 100 µM throughout. Moreover, the TGI in test [7], in test [8], in test [9] and in test [10] was > 100 µM each time.

`Clc1nc(Oc2ccccc2)nc(-c2cn(-c3ccccc3)c3ccccc23)n1`: the GI50 in test [1] is 27.4 µM; in test [2], 10.6 µM; in test [3], 14.6 µM; in test [4], 15.2 µM; in test [5] it was 2.44 µM; in test [6] it was 5.32 µM. The GI50 is 0.79 µM in test [7], 21.4 µM in test [8], 0.241 µM in [9] and 28.7 µM in [10]. The TGI in test [1] was > 67.4 µM; in test [2], 24.6 µM; in test [3] it was 46.9 µM; in [4] it was 29.4 µM; in test [5], 5.93 µM; in test [6], 17.1 µM. Further, the TGI is 21.9 µM in [7], > 71.7 µM in test [8], 0.849 µM in test [9] and 67.1 µM in [10].

`CC1(C)C2CC(c3ccncc3)ON2C(C)(C)N1O` (stereo not given): the TGI in test [1], in test [2], in test [3], in test [4], in [5] and in test [6] was > 100 µM throughout. In addition, the TGI in test [7], in test [8], in test [9] and in test [10] was > 100 µM in each case.

`CN1CCN(CCSC2Cc3cc(Cl)ccc3Sc3ccccc32)CC1` (stereo not given): the TGI worked out at 13.2 µM in test [1]; 3.26 µM in test [2]; 29.2 µM in test [3]; 26.7 µM in test [4]; 14.1 µM in test [5]; 3.66 µM in [6]. Besides, the TGI in test [7] worked out at 7.74 µM; in test [8], 16.1 µM; in test [9] it was 19.9 µM; in test [10], 9.67 µM.

As to `COc1cc2nc(-c3ccc(C(F)(F)F)cc3)cc(OCCCN3CCOCC3)c2cc1OC`, the GI50 in test [1] is 1.04 µM; in [2], 0.528 µM; in test [3], 1.61 µM; in test [4], 1.67 µM; in test [5] it was 0.141 µM; in [6] it was 0.355 µM. In addition, the GI50 in [7] is 2.51 µM; in test [8], 0.639 µM; in test [9] it was 0.242 µM; in test [10], 13.9 µM. Besides, the TGI in [1] came out at 20 µM; in [2], 10.3 µM; in test [3] it was 19.6 µM; in test [4], 13.1 µM; in test [5], 0.324 µM; in test [6] it was 1.55 µM. In addition, the TGI was 14.9 µM in test [7], 13.6 µM in test [8], 14.3 µM in test [9] and 30.6 µM in test [10].

For `CN1CCN(Cc2ccc(NC(=O)c3cncc(C#Cc4cnc(N)c5ccc(F)cc45)c3)cc2C(F)(F)F)CC1`, the GI50 in test [1] was 2.04 µM; in test [2] it was 1.23 µM; in test [3], 3.84 µM; in test [4], 2.89 µM; in test [5], 1.01 µM; in test [6], 0.974 µM. Further, the GI50 in [7] is 0.974 µM; in test [8] it was 1.08 µM; in test [9], 1.25 µM; in [10] it was 2.44 µM. The TGI in test [1] amounted to 6.46 µM; in [2] it was 4.77 µM; in test [3] it was 7.89 µM; in [4] it was 7.24 µM; in test [5], 4.27 µM; in test [6], 4.4 µM. For the same compound, the TGI in [7] is 6.19 µM; in test [8], 8.95 µM; in test [9], 33.3 µM; in test [10] it was 6.68 µM.

As for `COc1ccc2c(c1)sc1nc(-c3ccccc3)c(-c3ccsc3)n12`, the GI50 in [1] is 5.02 µM; in test [2], 2.26 µM; in [3], 7.76 µM; in test [4], 7.86 µM; in test [5], 5.25 µM; in test [6], 2.64 µM. In addition, the GI50 in test [7] was 4.24 µM; in test [8], 4.45 µM; in test [9], 2.02 µM; in [10] it was 37.7 µM. Moreover, the TGI in test [1] is > 100 µM; in test [2], 6.38 µM; in test [3], > 100 µM; in test [4], > 100 µM; in test [5], > 100 µM; in test [6], > 100 µM. In addition, the TGI in [7], in test [8], in [9] and in test [10] was > 100 µM throughout.

On to `COc1ccc(NC(=O)C2C(=O)N(c3ccc(OC)cc3)C(=O)/C2=N/O)cc1` (stereo not given), for which the TGI in [1] is > 78.7 µM; in test [2] it was > 100 µM; in [3], 97.2 µM; in [4], 43.3 µM; in test [5], > 100 µM; in test [6] it was > 86.6 µM. Also, the TGI is > 100 µM in test [7], 46.4 µM in test [8], > 100 µM in test [9] and 52.3 µM in test [10].

`Nc1c(C(=O)c2ccccc2)sc2nc(-c3cccs3)ccc12`: the GI50 was 0.492 µM in test [1]; 0.426 µM in test [2]; 0.285 µM in test [3]; 0.276 µM in test [4]; 0.378 µM in test [5]; 0.0924 µM in test [6]. The GI50 in test [7] is 0.0504 µM; in test [8], 0.283 µM; in [9], 0.0668 µM; in [10] it was 0.414 µM. Besides, the TGI in [1] turned out to be 4.8 µM; in test [2], 4.65 µM; in test [3] it was 17.5 µM; in [4] it was 17.8 µM; in [5], 15.3 µM; in test [6], 13.3 µM. Besides, the TGI is 1.12 µM in test [7], 2.56 µM in test [8], 4.16 µM in [9] and 5.79 µM in test [10].

In the case of `CC(=O)Oc1cc(C)ccc1[C@]1(C)CC[C@H](C)/C1=C\Br`, the GI50 in test [1] is 4.98 µM; in test [2], 2.3 µM; in test [3], 6.67 µM; in test [4], 9.22 µM; in test [5], 4.77 µM; in test [6], 6.31 µM. The GI50 was 5.22 µM in test [7], 4.17 µM in test [8], 2.72 µM in test [9] and 3.6 µM in test [10]. The TGI came out at 17.3 µM in test [1]; 5.33 µM in test [2]; 18.5 µM in [3]; 22.2 µM in [4]; 17.1 µM in test [5]; 19.6 µM in test [6]. For the same compound, the TGI in [7] was determined as 22.8 µM; in test [8], 15.2 µM; in [9] it was 12.8 µM; in test [10], 12.5 µM.

Turning to `O=c1oc2ccccc2c(O)c1/C=N\c1nc(-c2ccccc2)cs1`, the TGI is > 100 µM in test [1]; 11.5 µM in test [2]; 42.6 µM in test [3]; 64.4 µM in test [4]; 23.6 µM in [5]; 16.2 µM in test [6]. Also, the TGI is 7.03 µM in [7], > 100 µM in [8], 5.31 µM in [9] and 7.58 µM in test [10].

With `COc1cc(OC2OC(C)C(O)C(O)C2O)cc2oc(-c3ccc(O)cc3)c(CC=C(C)C)c(=O)c12` (stereo not given), the GI50 in [1] was 22.8 µM; in test [2] it was 10 µM; in [3] it was 25.6 µM; in [4] it was 18.2 µM; in test [5], 10.4 µM; in test [6], 19.2 µM. Moreover, the GI50 was 3.45 µM in test [7], 14.7 µM in [8], 4.08 µM in test [9] and 25 µM in test [10]. Further, the TGI in test [1] is 68.5 µM; in test [2], 22.1 µM; in test [3], 99.4 µM; in test [4], 49.6 µM; in test [5], 23 µM; in [6] it was 39.8 µM. Also, the TGI in test [7] worked out at 17.7 µM; in [8], 38.7 µM; in test [9], 22.5 µM; in test [10], 64.7 µM.

On to `C[CH2][Sn]1([CH2]C)[O]C(=O)[O][Sn]([CH2]C)([CH2]C)[O]1`, for which the GI50 in test [1] is > 65.4 µM; in test [2], > 41.1 µM; in test [3], > 41.8 µM; in test [4] it was 41.8 µM; in test [5] it was 17.2 µM; in test [6] it was 18.8 µM. Besides, the GI50 in test [7] is 41.7 µM; in [8], > 60.3 µM; in [9], 30.8 µM; in [10] it was 18.7 µM. Moreover, the TGI in test [1] was > 100 µM; in test [2], > 57.1 µM; in test [3], > 57 µM; in [4], > 68.2 µM; in test [5] it was 33 µM; in [6], 33.1 µM. The TGI in test [7] is > 100 µM; in [8], > 100 µM; in test [9], > 100 µM; in test [10], 32.8 µM.
